Measurements taken from paper PMC8686256, “DZNep promotes mouse bone defect healing via enhancing both osteogenesis and osteoclastogenesis” (Stem Cell Research & Therapy, 2021).

Legend:
Assay type in all cases: cell-based, mouse
primary BMSC = assay: CCK-8 cytotoxicity on BMSC; conditions: 100 nM; 12, 48, and 96 h
EZH2 and H3K27me3 = assay: Western blotting of EZH2, H3K27me3 and GSK-3β in BMSC
[1] = test system: BMMs and calvarial OB co-culture; assay: Osteoblasts and osteoclasts co-cultivation, ALP staining; conditions: 7 days
Procedure: For the osteoblasts and osteoclasts co-culture system, calvarial OB isolated from day 1–3 pups were cultured for 24 h. Then the calvarial OB with complete α-MEM (α-MEM supplemented with 10% FBS, 1% penicillin/streptomycin) were seeded into 24-well plates at a density of 2 × 10^4 cells/well. After 3 days of cultivation, the medium was replaced by the complete α-MEM containing […] ascorbic acid and 5 mM β-glycerophosphate. On the same day, bone marrow monocytes were isolated from bone marrow and cultured in 10-cm dish. Another 3 days later, BMMs were seeded at a density of 4 × 10^4 cells/well into the 24-well plate containing the calvarial OB, and the α-MEM supplemented with 15% FBS, 1% penicillin/streptomycin, 1, 25-dihydroxy vitamin D3 (10 nM; CSN), and PGE2 (1 μM; CSN). After changed every 3 days for 2 times of the culture medium, the cells were then fixed and stained to observe the percent of the positive ALP staining area using a kit according to the manufacturer’s instructions (Beyotime, Shanghai, China). The percent of area was then quantified using ImageJ.

primary BMMs = assay: CCK-8 cytotoxicity assay on BMMs
Procedure: Primary BMMs were obtained from whole bone marrow of male 6-week-old C57BL/6 mice. In brief, cells were extracted from the tibiae and femurs bone marrow and suspended in complete α-MEM (α-MEM supplemented with 30 ng/ml M-CSF, 10% FBS, and 1% penicillin/streptomycin). Then, the cell cultures were kept in a humid environment at 37 °C with 5% CO2 until they reached 90% confluence. The cytotoxic effects of DZNep on BMMs were then determined by the CCK-8 kit. Specifically, the BMMs were seeded into 96-well plates in triplicate at the density of 8 × 10^3 cells/well in presence of 100μL complete α-MEM for 24 h. After that, the cells were treated with increasing concentration of DZNep (control, 3.125, 6.25, 12.5, 25, 50, 100, 200 nM) for 24, 48, and 96 h. After treatment, 100μL medium contained 10% CCK-8 buffer was added to the wells and incubated in the dark at 37 °C for 2 h. The absorbance was then detected at 450 nm wavelength (650 nm reference) on a microplate reader.

NF-κB signaling pathway = assay: Western blotting and immunofluorescence of NF-κB signaling pathway
Procedure: To explore the variation of the proteins on long-term activated signaling, BMMs were cultured in α-MEM containing M-CSF (30 ng/ml) and RANKL (50 ng/ml) at a density of 2 × 10^5 cells/well on 6-well plates. After 24 h, the BMMs were treated with or without 25 nM DZNep for 0, 1, 3, and 5 days, and total protein was obtained, respectively, on these specific time points. To determine the effect of DZNep on the protein of short-time activated phosphorylated, RAW264.7 cells were cultured in α-MEM at a density of 5 × 10^5 cells/well on 6-well plates. One day later, the cells were treated with the serum-free α-MEM in the presence or absence of DZNEP for 3 hand then stimulated with 50 ng/mL RANKL for 0, 10, 20, 30, and 60 min. To determine the efficiency of EZH2 shRna, BMMs were cultured in α-MEM at a density of 5 × 10^5 cells/well on 6-well plates. One day later, the cells were treated with negative control shRNA or different EZH2 shRNA for 2 days. To determine the efficiency of Foxc1 siRna, BMMs were cultured in α-MEM at a density of 5 × 10^5 cells/well on 6-well plates. […] After TBST wash for 3 times, the secondary fluorescence antibodies were incubated without light for 1 h at room temperature and the reactivity was visualized by using Odyssey V3.0 image scanning (Li-COR. Inc., Lincoln, NE, USA). […]

Nc1nccc2c1ncn2C1C=C(CO)C(O)C1O (centres unmarked) [DZNep, 3-Deazaneplanocin]
cytotoxicity on primary BMSC (primary BMSC): no cytotoxicity was found
EZH2 and H3k27me3 expression in BMSC (EZH2 and H3K27me3; 0, 25, 50, 100 nM, 24 h, vs control): dose-dependent decreased
phosphorylation level of GSK-3β (EZH2 and H3K27me3; BMSC): no significant change
osteogenesis in co-culture system (ALP) [1]: still preserves the effect of promoting osteogenesis
cytotoxicity on primary BMMs (primary BMMs; 25 nM, CCK-8 at 24, 48, and 96 h): no cytotoxicity was found
IC50 (primary BMMs; Mus musculus, at 96 h, CCK-8, read-out: inhibitory concentration (IC50) against BMMs): 326 nM
NF-κB nuclear translocation (NF-κB signaling pathway; 25 nM pretreatment, then RANKL): enhancement of NF-κB nuclear translocation
phosphorylation of IKK, IκB, and p65 (NF-κB signaling pathway; RAW264.7, 25 nM pretreatment, RANKL for specific times): further promoted over time
